Source: patent US20220089575A1, “FARNESOID X RECEPTOR AGONISTS AND USES THEREOF” (Metacrine, Inc., priority 2017, published 2022)

Target: T1, hFXR (Homo sapiens, UniProt Q96RI1)
T1 construct: expressed in transfected cells; host or cells: CV-1 cells
T1 sequence (Q96RI1 1-486): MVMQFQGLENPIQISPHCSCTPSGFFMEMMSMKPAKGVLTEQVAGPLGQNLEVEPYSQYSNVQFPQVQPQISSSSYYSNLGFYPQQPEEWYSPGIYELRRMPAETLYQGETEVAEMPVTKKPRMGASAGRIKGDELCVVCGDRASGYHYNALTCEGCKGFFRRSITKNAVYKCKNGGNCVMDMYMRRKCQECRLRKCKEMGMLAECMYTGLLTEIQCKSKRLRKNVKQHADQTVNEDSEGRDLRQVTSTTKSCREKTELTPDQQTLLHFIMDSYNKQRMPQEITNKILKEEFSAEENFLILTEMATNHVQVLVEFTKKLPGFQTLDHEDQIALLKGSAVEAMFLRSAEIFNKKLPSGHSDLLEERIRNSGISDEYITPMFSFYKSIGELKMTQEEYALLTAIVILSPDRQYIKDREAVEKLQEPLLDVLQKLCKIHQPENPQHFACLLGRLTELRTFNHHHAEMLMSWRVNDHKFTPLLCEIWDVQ
T1 sequence (P19793 1-462 partner): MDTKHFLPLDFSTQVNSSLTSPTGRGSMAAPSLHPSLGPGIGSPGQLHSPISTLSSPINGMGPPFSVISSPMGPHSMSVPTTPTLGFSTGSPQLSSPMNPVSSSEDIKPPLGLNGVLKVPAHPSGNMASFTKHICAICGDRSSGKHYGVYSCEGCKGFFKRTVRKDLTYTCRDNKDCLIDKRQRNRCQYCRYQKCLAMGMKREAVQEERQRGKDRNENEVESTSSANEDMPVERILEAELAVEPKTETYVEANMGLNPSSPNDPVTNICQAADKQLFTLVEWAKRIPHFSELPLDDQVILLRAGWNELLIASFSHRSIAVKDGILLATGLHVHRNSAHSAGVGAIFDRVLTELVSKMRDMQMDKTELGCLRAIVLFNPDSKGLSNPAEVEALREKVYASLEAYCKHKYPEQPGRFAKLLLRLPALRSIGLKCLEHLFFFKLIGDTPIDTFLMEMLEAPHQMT
Experiment: In Vitro FXR Assay (TK): TK-ECRE-luc reporter in transfected CV-1 cells
Format: cell-based
Conditions: 18 hrs, luminescence, maximum efficacy of <25% of the Fexarmine control classified as '+'
In short: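 Reporter transactivation by hFXR was measured in CV-1 cells carrying hRXR and a TK-ECRE-luc construct, with compound treatment for 18 h before lysis and luminescence detection.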

| Structure (SMILES) | EC50 |
| --- | --- |
| CCN(CCO)C(=O)O[C@H]1CC[C@H](C(=O)N(C[C@H]2CC[C@H](c3ccc(OC)c(C)n3)CC2)c2cc(-c3coc(C4CC4)n3)ccn2)CC1 [Compound 6.74, trans-4-((4-(2-Cyclopropyloxazol-4-yl)pyridin-2-yl)((trans-4-(5-methoxy-6-methylpyridin-2-yl)cyclohexyl)methyl)carbamoyl)cyclohexyl ethyl(2-hydroxyethyl)carbamate] | ≤ 250 nM |
| COc1ccc([C@H]2CC[C@H](CN(c3cc(-c4coc(C(C)C)n4)ccn3)C(=O)[C@H]3CC[C@H](OC(=O)N4CC(S(C)(=O)=O)C4)CC3)CC2)nc1C [Compound 6.75, trans-4-((4-(2-Isopropyloxazol-4-yl)pyridine-2-yl)((trans-4-(5-methoxy-6-methylpyridin-2-yl)cyclohexyl)methyl)carbamoyl)cyclohexyl 3-(methylsulfonyl)azetidine-1-carboxylate] | ≤ 250 nM |
| COc1ccc([C@H]2CC[C@H](CN(c3cc(-c4coc(C5CC5)n4)ccn3)C(=O)[C@H]3CC[C@H](OC(=O)N4CC(OCCO)C4)CC3)CC2)nc1C [Compound 6.76, trans-4-((4-(2-Cyclopropyloxazol-4-yl)pyridine-2-yl)((trans-4-(5-methoxy-6-methylpyridin-2-yl)cyclohexyl)methyl)carbamoyl)cyclohexyl 3-(2-hydroxyethoxy)azetidine-1-carboxylate] | ≤ 250 nM |
| COc1ccc([C@H]2CC[C@H](CN(c3cc(-c4coc(C(C)C)n4)ccn3)C(=O)[C@H]3CC[C@H](OC(=O)N4CCN(C)CC4)CC3)CC2)nc1C [Compound 6.77, trans-4-((4-(2-Isopropyloxazol-4-yl)pyridine-2-yl)((trans-4-(5-methoxy-6-methylpyridin-2-yl)cyclohexyl)methyl)carbamoyl)cyclohexyl 4-methylpiperazine-1-carboxylate] | ≤ 250 nM |
| COc1ccc([C@H]2CC[C@H](CN(c3cc(-c4coc(C5CC5)n4)ccn3)C(=O)[C@H]3CC[C@H](OC(=O)N4CCNCC4)CC3)CC2)nc1C [Compound 6.78, trans-4-(4-(2-Cyclopropyloxazol-4-yl)pyridine-2-yl)((trans-4-(5-methoxy-6-methylpyridin-2-yl)cyclohexyl)methyl) carbamoyl)cyclohexylpiperazine-1-carboxylate] | 250 to 1000 nM |
| COc1ccc([C@H]2CC[C@H](CN(c3cc(-c4coc(C5CC5)n4)ccn3)C(=O)[C@H]3CC[C@H](OC(=O)NC4CCN(C)CC4)CC3)CC2)nc1C [Compound 6.79, trans-4-((4-(2-Cyclopropyloxazol-4-yl)pyridine-2-yl)((trans-4-(5-methoxy-6-methylpyridin-2-yl)cyclohexyl)methyl)carbamoyl)cyclohexyl (1-methylpiperidin-4-yl)carbamate] | ≤ 250 nM |
| COc1ccc([C@H]2CC[C@H](CN(c3cc(-c4coc(C5CC5)n4)ccn3)C(=O)[C@H]3CC[C@H](OC(=O)N[C@@H]4CCCN(C)C4)CC3)CC2)nc1C [Compound 6.80, trans-4-((4-(2-Cyclopropyloxazol-4-yl)pyridin-2-yl)((trans-4-(5-methoxy-6-methylpyridin-2-yl)cyclohexyl)methyl)carbamoyl)cyclohexyl ((R)-1-methylpiperidin-3-yl)carbamate] | ≤ 250 nM |
| CCN1CCN(C(=O)O[C@H]2CC[C@H](C(=O)N(C[C@H]3CC[C@H](c4ccc(OC)c(C)n4)CC3)c3cc(-c4coc(C5CC5)n4)ccn3)CC2)CC1 [Compound 6.81, trans-4-((4-(2-Cyclopropyloxazol-4-yl)pyridine-2-yl)((trans-4-(5-methoxy-6-methylpyridin-2-yl)cyclohexyl)methyl)carbamoyl)cyclohexyl 4-ethylpiperazine-1-carboxylate] | ≤ 250 nM |
| COc1ccc([C@H]2CC[C@H](CN(c3cc(-c4coc(C5CC5)n4)ccn3)C(=O)[C@H]3CC[C@H](OC(=O)N4CCN(C(C)C)CC4)CC3)CC2)nc1C [Compound 6.82, trans-4-((4-(2-Cyclopropyloxazol-4-yl)pyridine-2-yl)((trans-4-(5-methoxy-6-methylpyridin-2-yl)cyclohexyl)methyl)carbamoyl)cyclohexyl 4-isopropylpiperazine-1-carboxylate] | ≤ 250 nM |
| COc1ccc([C@H]2CC[C@H](CN(c3cc(-c4coc(C5CC5)n4)ccn3)C(=O)[C@H]3CC[C@H](OC(=O)N4CCOC(C)(C)C4)CC3)CC2)nc1C [Compound 6.83, trans-4-((4-(2-Cyclopropyloxazol-4-yl)pyridin-2-yl)((trans-4-(5-methoxy-6-methylpyridin-2-yl)cyclohexyl)methyl)carbamoyl)cyclohexyl 2,2-dimethylmorpholine-4-carboxylate] | ≤ 250 nM |
| COc1ccc([C@H]2CC[C@H](CN(c3cc(-c4coc(C5CC5)n4)ccn3)C(=O)[C@H]3CC[C@H](OC(=O)N4CC(C5COC5)C4)CC3)CC2)nc1C [Compound 6.84, trans-4-((4-(2-Cyclopropyloxazol-4-yl)pyridin-2-yl)((trans-4-(5-methoxy-6-methylpyridin-2-yl)cyclohexyl)methyl)carbamoyl)cyclohexyl 3-(oxetan-3-yl) azetidine-1-carboxylate] | ≤ 250 nM |

The remaining lines, values ahead:

| EC50 | Structure (SMILES) |
| --- | --- |
| ≤ 250 nM | CCc1nc(-c2ccnc(N(C[C@H]3CC[C@H](c4ccc(OC)c(C)n4)CC3)C(=O)[C@H]3CC[C@H](OC(=O)NCCO)CC3)c2)co1 [Compound 6.85, trans-4-((4-(2-Ethyloxazol-4-yl)pyridin-2-yl)((trans-4-(5-methoxy-6-methylpyridin-2-yl)cyclohexyl)methyl)carbamoyl)cyclohexyl (2-hydroxyethyl)carbamate] |
| ≤ 250 nM | COc1ccc([C@H]2CC[C@H](CN(c3cc(-c4coc(C5CC5)n4)ccn3)C(=O)[C@H]3CC[C@H](OC(=O)N(C)CC(C)(C)O)CC3)CC2)nc1C [Compound 6.86, trans-4-((4-(2-Cyclopropyloxazol-4-yl)pyridin-2-yl)((trans-4-(5-methoxy-6-methylpyridin-2-yl)cyclohexyl)methyl)carbamoyl)cyclohexyl (2-hydroxy-2-methylpropyl)(methyl)carbamate] |
| ≤ 250 nM | COc1ccc([C@H]2CC[C@H](CN(c3cc(-c4coc(C5CC5)n4)ccn3)C(=O)[C@H]3CC[C@H](OC(=O)N(C)CCO)CC3)CC2)nc1C [Compound 6.87, trans-4-((4-(2-Cyclopropyloxazol-4-yl)pyridin-2-yl)((trans-4-(5-methoxy-6-methylpyridin-2-yl)cyclohexyl)methyl)carbamoyl)cyclohexyl (2-hydroxyethyl)(methyl)carbamate] |
| ≤ 250 nM | CCC(O)C(C)NC(=O)O[C@H]1CC[C@H](C(=O)N(C[C@H]2CC[C@H](c3ccc(OC)c(C)n3)CC2)c2cc(-c3coc(C4CC4)n3)ccn2)CC1 (stereo partly drawn) [Compound 6.88, trans-4-((4-(2-Cyclopropyloxazol-4-yl)pyridin-2-yl)((trans-4-(5-methoxy-6-methylpyridin-2-yl)cyclohexyl)methyl)carbamoyl)cyclohexyl (3-hydroxypentan-2-yl)carbamate] |
| ≤ 250 nM | COc1ccc([C@H]2CC[C@H](CN(c3cc(-c4coc(C5CC5)n4)ccn3)C(=O)[C@H]3CC[C@H](OC(=O)NCC(O)C(C)C)CC3)CC2)nc1C (stereo partly drawn) [Compound 6.89, trans-4-((4-(2-Cyclopropyloxazol-4-yl)pyridin-2-yl)((trans-4-(5-methoxy-6-methylpyridin-2-yl)cyclohexyl)methyl)carbamoyl)cyclohexyl (2-hydroxy-3-methylbutyl)carbamate] |
| ≤ 250 nM | COc1ccc([C@H]2CC[C@H](CN(c3cc(-c4coc(C5CC5)n4)ccn3)C(=O)[C@H]3CC[C@H](OC(=O)NC(C)(C)CO)CC3)CC2)nc1C [Compound 6.90, trans-4-((4-(2-Cyclopropyloxazol-4-yl)pyridin-2-yl)((trans-4-(5-methoxy-6-methylpyridin-2-yl)cyclohexyl)methyl)carbamoyl)cyclohexyl (1-hydroxy-2-methylpropan-2-yl)carbamate] |
| ≤ 250 nM | COc1ccc([C@H]2CC[C@H](CN(c3cc(-c4coc(C(C)C)n4)ccn3)C(=O)[C@H]3CC[C@H](OC(=O)NCC(C)(C)O)CC3)CC2)nc1C [Compound 6.91, trans-4-((4-(2-Isopropyloxazol-4-yl)pyridin-2-yl)((trans-4-(5-methoxy-6-methylpyridin-2-yl)cyclohexyl)methyl)carbamoyl)cyclohexyl (2-hydroxy-2-methylpropyl)carbamate] |
| ≤ 250 nM | COc1ccc([C@H]2CC[C@H](CN(c3cc(-c4cnn(C(C)C)c4)ccn3)C(=O)[C@H]3CC[C@H](OC(=O)NCC(C)(C)O)CC3)CC2)nc1C [Compound 6.92, trans-4-((4-(1-Isopropyl-1H-pyrazol-4-yl)pyridin-2-yl)((trans-4-(5-methoxy-6-methylpyridin-2-yl)cyclohexyl)methyl)carbamoyl)cyclohexyl (2-hydroxy-2-methylpropyl)carbamate] |
